Data: US3985732A, “1,2,3,11A-Tetrahydro-10-methyl-5H-pyrrolo[2,1-c][1,4]ben zodiazepin-5,11(10H)-diones” (American Cyanamid Company, priority 1975, dated 1976)

Tested on: clonic seizures caused by pentylenetetrazole in rats
Experiment: Protection against clonic seizures caused by pentylenetetrazole in rats (oral)
Assay type: in vivo, rat
Settings: for effectiveness as anxiolytic agents versus closest prior art compound (respective dextrorotatory and racemic forms without 10-methyl): pentylenetetrazole test in rats, compared with Compounds 4 and 5
Description: The anti-anxiety properties of the compounds of the present invention have been established in a test which indicates anxiolytic activity by a measure of protection from convulsions resulting from the administration of pentylenetetrazol. Graded dose levels of the dextro and racemic forms of the 1,2,3,11a-tetrahydro-10-methyl-5H-pyrrolo[2,1-c][1,4]benzodiazepin-5,11(10H)-diones are administered orally, in a 2% starch vehicle, to groups of at least 5 rats. At the estimated time of peak effect, the rats are treated intravenously with pentylenetetrazole at a dose of 21 to 23 mg/kg of body weight. This dose is estimated to cause clonic seizures in 99% of unprotected rats. The effective dose of the test compound for protection of 50% of the animals is calculated by the method of J. T. Litchfield and F. Wilcoxon, Journal of Pharmacology and Experimental Therapeutics, 96, 99 (1949). The results are given in the table which follows in comparison with Librium (chlordiazepoxide), Valium (diazepam) and the dextro and racemic forms of 1,2,3,11a-tetrahydro-5H-pyrrolo-[2,1-c] [1,4]benzodiazepin-5,11(10H)-dione (U.S. Pat. No. 3,732,212) all of which were tested in exactly the same manner. It has been reported [R. T. Hill and D. H. Tedeschi, "Animal Testing and Screening Procedures in Evaluating Psychotropic Drugs" in An Introduction to Psychopharmacology, Eds. R. R. Rech and K. E. Moore, Raven Press, New York, pp. 237-288 (1971)] that there is a high degree of correlation between antagonism of pentylenetetrazole seizures in rats and antianxiety effects in higher warm-blooded animals.

| SMILES | effectiveness as anxiolytic agents versus closest prior art compound (respective dextrorotatory and racemic forms without 10-methyl) | ED50 (Rattus norvegicus, 2% starch vehicle, at least 5 rats per group, pentylenetetrazole 21 to 23 mg/kg intravenously at estimated time of peak effect, Litchfield and Wilcoxon, read-out: Medium Effective Oral Dose ED50, protection against clonic seizures caused by pentylenetetrazole) |
| --- | --- | --- |
| CN1C(=O)[C@@H]2CCCN2C(=O)c2ccccc21 [Compound 2, Dextrorotatory 1,2,3,11a-Tetrahydro-10-methyl-5H-pyrrolo[2,1-c][1,4]benzodiazepin-5,11(10H)-dione] | far more effective | – |
| CN1C(=O)[C@@H]2CCCN2C(=O)c2cc(F)ccc21 [Dextrorotatory 7-Fluoro-1,2,3,11a-tetrahydro-10-methyl-5H-pyrrolo[2,1-c][1,4]benzodiazepin-5,11(10H)-dione] | far more effective | 4 mg/kg |
| CN1C(=O)C2CCCN2C(=O)c2ccccc21 (racemic) [Compound 3, Racemic (DL) 1,2,3,11a-Tetrahydro-10-methyl-5H-pyrrolo[2,1-c][1,4]benzodiazepin-5,11(10H)-dione] | far more effective | – |
